Structures are written as SMILES. pIC50: −log10 of the molar value. Peptide text beside a SMILES is read from it.

Assay [1] deals with T1, rat recombinant ETB receptor (CHO cells) (Rattus norvegicus, UniProt P21451).
T1 construct: expressed in transfected cells; host or cells: CHO cells
T1 sequence (P21451 27-442): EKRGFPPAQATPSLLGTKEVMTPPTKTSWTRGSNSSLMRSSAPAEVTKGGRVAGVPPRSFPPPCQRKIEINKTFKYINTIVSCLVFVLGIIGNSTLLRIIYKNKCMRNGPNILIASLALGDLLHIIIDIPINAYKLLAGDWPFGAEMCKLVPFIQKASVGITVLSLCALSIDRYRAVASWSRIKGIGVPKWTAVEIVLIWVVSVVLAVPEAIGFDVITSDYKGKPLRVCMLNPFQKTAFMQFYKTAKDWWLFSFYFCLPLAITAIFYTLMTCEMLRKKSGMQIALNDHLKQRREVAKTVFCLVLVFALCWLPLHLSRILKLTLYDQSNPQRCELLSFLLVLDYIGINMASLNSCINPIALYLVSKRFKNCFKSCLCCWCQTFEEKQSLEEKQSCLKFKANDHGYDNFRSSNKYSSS
The assay is described as follows: Inhibition of ET-1 stimulated arachidonic acid release (AAR-B). It counts as cell-based. The settings on record: ET-1 0.3 nM. How it is done: (§1) In Vitro Inhibition of ET-1 Stimulated Arachidonic Acid Release in Cultured Rabbit Vascular Smooth Muscle Cells (AAR-A) or CHO Cells Expressing Rat Recombinant ETB Receptor (AAR-B) by Compounds of Formula I
(§2) Antagonist activity is measured by the ability of added compounds to reduce endothelin-stimulated arachidonic acid release in cultured vascular smooth muscle cells as arachidonic acid release (AAR). [^3 H] Arachidonic Acid Loading Media (LM) is DME/F12+0.5% fetal calf serum (FCS)×0.25 mCi/mL [^3 H] arachidonic acid (Amersham). Confluent monolayers of cultured rabbit renal artery vascular smooth muscle cells (AAR-A) or CHO cells expressing rat recombinant ETB receptor (AAR-B) were incubated in 0.5 mL of the LM over 18 hours, at 37° C., in 5% CO2. The LM was aspirated and the cells were washed once with the assay buffer (Hank's balanced salt solution [BSS]+10 mM HEPES+fatty acid-free BSA (1 mg/mL)), and incubated for 5 minutes with 1 mL of the prewarmed assay buffer. This solution was aspirated, followed by an additional 1 mL of prewarmed assay buffer, and further incubated for another 5 minutes. A final 5-minute incubation was carried out in a similar manner. The same procedure was repeated with the inclusion of 10 μL of the test compound (1 nM to 1 μM) and 10 μL ET-1 (0.3 nM) and the incubation was extended for 30 minutes. This solution was then collected, […] of scintillation cocktail was added, and the amount of [^3 H] arachidonic acid was determined in a liquid scintillation counter.

The target of assay [2] is T2, endothelin receptor (ETB), rat cerebellar membranes (Rattus norvegicus, UniProt P21451).
T2 construct: thaw one aliquot of frozen rat cerebellar membranes (2 mg protein in 0.5 mL); from tissue; host or cells: rat cerebellum (membranes)
T2 sequence (P21451 27-442): T1 sequence (P21451 27-442)
Description: Endothelin Receptor Binding Assay-B (ERBA-B), [125I]-ET-1 binding in rat cerebellar membranes. The settings on record: [125I]-ET-1 25 pM, read-out: ERRA-B IC50.

For assay [3], the system named is endothelin receptor (ETA), rabbit renal artery vascular smooth muscle cells. The assay is described as follows: Endothelin Receptor Binding Assay-A (ERBA-A), intact cell binding of [125I]-ET-1. The settings on record: [125I]-ET-1 25 pM.
In assay [4] the test system is ET-1 pressor activity. Description: Conscious rat duration of action study. The assay is classed as in vivo. The settings on record: 10 mg/kg IV; for inhibition of ET-1 pressor activity: ganglionically blocked conscious rats, n=4. From the text:
Conscious Rat Duration of Action Study
Nonfasted rats (350-500 g) were used and anesthetized with Metofane (methoxyflurane) by inhalation. The rats were jugular cannulated (PE50) for IV administration of mecamylamine-HC1 (MEC), ET-1 and Ac-D-Bhg-Leu-Asp-Ile-N-MeIle-Trp (Example 19) Seq ID No: 20, and carotid cannulated (PE50) for arterial blood pressure measurements. Rats were attached to a swivel for freedom of movement, and food and water were available ad lib. Prior to the experiment, the animals were allowed to recover from anesthesia for 60 minutes. […] Ac-D-Bhg-Leu-Asp-Ile-N-MeIle-TrP (Example 19) Seq ID No: 20 was administered at a dose of 10 mg/kg IV.

Assay [5] deals with endothelin receptor, cultured rabbit renal artery vascular smooth muscle cells. Description: Inhibition of ET-1 stimulated arachidonic acid release (AAR-A). The conditions noted are these: ET-1 0.3 nM. The assay is classed as cell-based. How it is done:
as §1, §2

Take `CC[C@H](C)[C@H](NC(=O)[C@H](CC(=O)O)NC(=O)[C@H](CC(C)C)NC(=O)[C@H](NC(C)=O)C1c2ccccc2CCc2ccccc21)C(=O)N[C@H](C(=O)N[C@@H](Cc1c[nH]c2ccccc12)C(=O)O)[C@@H](C)CC` [Example 1, Ac-D-Bhg-Leu-Asp-Ile-Ile-Trp] (HELM PEPTIDE1{[ac].[O=C([C@H](N[*:1])C1c2ccccc2CCc2ccccc21)[*:2]].L.D.I.I.W}$$$$V2.0): the negative logarithm of the IC50 (pIC50) was 7.70 in assay [1] and 7.72 in assay [2].

As for `CC[C@H](C)[C@H](NC(=O)[C@H](CC(=O)O)NC(=O)[C@H](CC(C)C)NC(=O)[C@H](NC(C)=O)C1c2ccccc2CCc2ccccc21)C(=O)N(C)[C@H](C(=O)N[C@@H](Cc1c[nH]c2ccccc12)C(=O)O)[C@@H](C)CC` [Example 19, Ac-D-Bhg-Leu-Asp-Ile-N-MeIle-Trp] (HELM PEPTIDE1{[ac].[O=C([C@H](N[*:1])C1c2ccccc2CCc2ccccc21)[*:2]].L.D.I.[meI].W}$$$$V2.0), the results for the pIC50 in assay [3], in assay [2] and in assay [5] were 9.30, 7.40 and 8.37, respectively. For the same compound, the “duration of activity in vivo” value in assay [4] is on record as “prolonged activity”. Besides, the results for the “inhibition of ET-1 pressor activity” value in assay [4] (5 minutes postdose) and in assay [4] (30 minutes postdose) were 81% and 58%, respectively.

The pIC50 is −log10 of the IC50, conventionally taken in molar units.
